We go through 1 substance from patent publication US9381257B2, “Triarylmethyl radicals” (BRACCO IMAGING S.P.A., priority 2012, dated 2016).

The nature of data set [1]: DNP polarization build-up and dissolution of ethylacetoacetate with the radical as polarizing agent. The settings on record: 18 mM radical in 15-Crown-5 / 1,3-13C2 ethylacetoacetate; DNP at 1.2 K, 3.35 T, microwave irradiation. The method, then: Radical 1 (1.50 mg, 1.4 μmol) was dissolved in 15-Crown-5 (60.5 μl, 67.2 mg) to make a 24 mM solution. To 30 μl (33.7 mg) of this solution was added 1,3-^13C2 ethylacetoacetate (10.5 mg, 79 μmol, 158 μmol ^13C). The radical 1 concentration in the mixture was 18 mM.
43 mg of the composition prepared above were transferred from the Eppendorf tube to a sample cup and the sample cup was inserted into a DNP polarizer. The composition was polarised under DNP conditions at 1.2 K in a 3.35 T magnetic field under irradiation with microwave (93.900 GHz). The calculated solid-state polarization was 17% and the polarization build-up constant was 900 s.
The sample was dissolved in 6 ml 40 mM phosphate buffer pH 7.3+100 mg/l EDTA. A time series of 1D 13C-NMR spectra were recorded with a total delay between the pulses of 3 s. The liquid state polarization was 14% after 12 s transfer time. The pH was 7.3 in the dissolved sample. […]
43 mg of the composition prepared above were transferred from the Eppendorf tube to a sample cup and the sample cup was inserted into a DNP polarizer. […] The calculated solid-state polarization was 18% and the polarization build-up constant was 1700 s.
The sample was dissolved in 6 ml 40 mM phosphate buffer pH 7.3+100 mg/l EDTA. A time series of 1D 13C-NMR spectra were recorded with a total delay between the pulses of 3 s. […]

Data set [2] is described as follows: Precipitation of the radical on aqueous dissolution and removal by mechanical filtration (UV-Vis check of filtrate). It is filed as physicochemical. The method, then:
The sample was dissolved in 6 ml 40 mM phosphate buffer pH 7.3+100 mg/l EDTA. A time series of 1D 13C-NMR spectra were recorded with a total delay between the pulses of 3 s. The liquid state polarization was 14% after 12 s transfer time. The pH was 7.3 in the dissolved sample.
The sample was dissolved in 6 ml 40 mM phosphate buffer pH 7.3+100 mg/l EDTA. A time series of 1D 13C-NMR spectra were recorded with a total delay between the pulses of 3 s. The liquid state polarization was 15% after 12 s transfer time. The pH was 7.3 in the dissolved sample. The sample was filtered through a syringe filter (Acrodisk 25 mm PVDF filter, 0.45 μm pore size). Filtration of the full volume was completed in <3 s. […] Since the high extinction coefficients of the trityl radicals allow reliable determination of concentration down to approximately 1-1.5 μM, the concentration in the filtrate was below these values. The radical was removed to >99%.

For “tris{8-carboxyl-2,2,6,6-tetramethyl-benzo(1,2-d:4,5-dS)bis(1,3)dithiole-4-yl}methyl sodium salt [Radical 1, reference compound]”, the polarization build-up constant in data set [1] was 900 s. In addition, the “removal of the radical by mechanical filtration” value in data set [2] (after water dissolution) is reported as “cannot be removed by mechanical filtration”. For the same substance, in data set [2] (dissolved in 6 ml 40 mM phosphate buffer pH 7.3 + 100 mg/l EDTA), the “precipitation of the radical in water dissolution” value was “does not precipitate”.
